In PubChem BioAssay AID248 (DTP/NCI, 2004):
Inconclusive results and toxic doses are left out. No stated cut-off is given here; in the data, active means T/C of 150% or more; inactive means T/C below 125%.

Test system: L1210 leukemia ip in BDF1 mice, survival T/C
Experiment: NCI In Vivo Anticancer Drug Screen. Data for tumor model L1210 Leukemia (intraperitoneal) in B6D2F1 (BDF1) mice
Details: endpoint: mean survival time, higher = longer survival
In short: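 Mice bearing the transplanted tumor received compound or vehicle. Survival of the treated group was divided by that of the vehicle-treated control group to give the ratio.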

[1] = dose: 100.0 mg/kg/injection, schedule: Q04DX002 (ip), vehicle: Klucel (hydroxypropylcellulose) (HPC)
[2] = dose: 200.0 mg/kg/injection, schedule: Q04DX002 (ip), vehicle: Klucel (hydroxypropylcellulose) (HPC)
[3] = dose: 12.5 mg/kg/injection, schedule: Q04DX003 (ip), vehicle: Klucel (hydroxypropylcellulose) (HPC)
[4] = dose: 25.0 mg/kg/injection, schedule: Q04DX003 (ip), vehicle: Klucel (hydroxypropylcellulose) (HPC)
[5] = dose: 50.0 mg/kg/injection, schedule: Q04DX003 (ip), vehicle: Klucel (hydroxypropylcellulose) (HPC)
[6] = dose: 100.0 mg/kg/injection, schedule: Q01DX009 (ip), vehicle: Klucel (hydroxypropylcellulose) (HPC)
[7] = dose: 100.0 mg/kg/injection, schedule: Q04DX003 (ip), vehicle: Klucel (hydroxypropylcellulose) (HPC)
[8] = dose: 200.0 mg/kg/injection, schedule: Q01DX009 (ip), vehicle: Klucel (hydroxypropylcellulose) (HPC)
[9] = dose: 200.0 mg/kg/injection, schedule: Q04DX003 (ip), vehicle: Klucel (hydroxypropylcellulose) (HPC)
[10] = dose: 400.0 mg/kg/injection, schedule: Q01DX009 (ip), vehicle: Klucel (hydroxypropylcellulose) (HPC)
[11] = dose: 400.0 mg/kg/injection, schedule: Q04DX003 (ip), vehicle: Klucel (hydroxypropylcellulose) (HPC)

Measured: T/C

CC(C(O)c1ccc(Br)cc1)C(O)(C(F)(F)F)C(F)(F)F (stereo unspecified)
inactive: dose: 100.0 mg/kg/injection, schedule: Q01DX009 (ip), vehicle: other 111 % of control | dose: 200.0 mg/kg/injection, schedule: Q01DX009 (ip), vehicle: other 97 % of control | dose: 400.0 mg/kg/injection, schedule: Q01DX009 (ip), vehicle: other 103 % of control

CN(C)CCN1C(=O)NC(C)(C)C1=O
inactive: dose: 50.0 mg/kg/injection, schedule: Q04DX003 (ip), vehicle: saline 96 % of control | dose: 100.0 mg/kg/injection, schedule: Q04DX003 (ip), vehicle: saline 101 % of control | dose: 200.0 mg/kg/injection, schedule: Q04DX003 (ip), vehicle: saline 90 % of control | dose: 400.0 mg/kg/injection, schedule: Q04DX003 (ip), vehicle: saline 93 % of control

CCOC(=O)CNc1cc(Cl)cc(Cl)c1
inactive: [1] 100 % of control | [2] 96 % of control | dose: 400.0 mg/kg/injection, schedule: Q04DX002 (ip), vehicle: Klucel (hydroxypropylcellulose) (HPC) 96 % of control

C[N+](C)(C)CSc1ccccc1-n1cccc1
inactive: dose: 12.5 mg/kg/injection, schedule: Q01DX009 (ip), vehicle: Klucel (hydroxypropylcellulose) (HPC) 112 % of control | [3] 103 % of control | dose: 25.0 mg/kg/injection, schedule: Q01DX009 (ip), vehicle: Klucel (hydroxypropylcellulose) (HPC) 103 % of control | [4] 92 % of control | dose: 50.0 mg/kg/injection, schedule: Q01DX009 (ip), vehicle: Klucel (hydroxypropylcellulose) (HPC) 110 % of control | [5] 97 % of control

CC12CCC(O)CC1CCC1C2CCC2(C)C(C(=O)O)CCC12 (stereo unspecified)
inactive: dose: 100.0 mg/kg/injection, schedule: Q04DX002 (ip), vehicle: gum acacia 99 % of control | dose: 200.0 mg/kg/injection, schedule: Q04DX002 (ip), vehicle: gum acacia 86 % of control | dose: 400.0 mg/kg/injection, schedule: Q04DX002 (ip), vehicle: gum acacia 89 % of control

CC1CCCCN1Cc1ccccc1CC(=O)c1ccccc1 (stereo unspecified)
inactive: [1] 93 % of control | [2] 107 % of control

NC(=O)Nc1nc(-c2ccccc2)no1
inactive: [6] 103 % of control | [7] 97 % of control | [8] 93 % of control | [9] 105 % of control | [10] 95 % of control | [11] 89 % of control

COC(=O)C(C)C(C)=O (stereo unspecified)
inactive: dose: 100.0 mg/kg/injection, schedule: Q01DX009 (sc), vehicle: olive oil, sesame oil, peanut oil 106 % of control | dose: 100.0 mg/kg/injection, schedule: Q04DX003 (sc), vehicle: olive oil, sesame oil, peanut oil 98 % of control | dose: 200.0 mg/kg/injection, schedule: Q01DX009 (sc), vehicle: olive oil, sesame oil, peanut oil 107 % of control | dose: 200.0 mg/kg/injection, schedule: Q04DX003 (sc), vehicle: olive oil, sesame oil, peanut oil 101 % of control | dose: 400.0 mg/kg/injection, schedule: Q01DX009 (sc), vehicle: olive oil, sesame oil, peanut oil 106 % of control | dose: 400.0 mg/kg/injection, schedule: Q04DX003 (sc), vehicle: olive oil, sesame oil, peanut oil 98 % of control

COc1cc2c(cc1OC)C(C)=[N+](C)CC2
inactive: [3] 101 % of control | [4] 103 % of control | [5] 106 % of control

CC(C)(C)SC(=O)Cc1ccc([N+](=O)[O-])cc1
inactive: dose: 50.0 mg/kg/injection, schedule: Q04DX002 (ip), vehicle: saline with Tween-80 90 % of control | dose: 100.0 mg/kg/injection, schedule: Q04DX002 (ip), vehicle: saline with Tween-80 100 % of control | dose: 200.0 mg/kg/injection, schedule: Q04DX002 (ip), vehicle: saline with Tween-80 93 % of control | dose: 400.0 mg/kg/injection, schedule: Q04DX002 (ip), vehicle: saline with Tween-80 87 % of control

CC(C)Cc1ccc(C(=O)O)cc1
inactive: [6] 94 % of control | [7] 97 % of control | [8] 94 % of control | [9] 108 % of control | [10] 94 % of control | [11] 102 % of control
